Measurements reported in patent US20120225949A1, “COMPOSITIONS AND METHODS FOR TREATING BIPOLAR DISORDER” (priority 2009, published 2012).

Key:
[1] = cited from earlier work
[2] = test system: PCP site of the NMDA receptor; settings: (S)- versus (R)-ketamine; cited from earlier work
[3] = test system: Childhood-Onset Bipolar Disorder With FOH; experiment: Ketamine treatment of childhood-onset bipolar disorder with FOH (single-subject case report); assay type: in vivo, human; settings: 2 intranasal puffs of ketamine
Source text: Subject is a child referred by their parents for psychiatric care to address their intense and often violent rages.
Subject has had episodic rages that have escalated in frequency and intensity since their adoption at 18 months. They have always experienced extreme separation anxiety but their aggression has shifted from themself toward their parents since starting school. The abuse towards their parents has included hitting, kicking, biting, and propelling objects. Parents came for consultation for fear that Subject will become more dangerous as they age.
Subject is currently on seroquel—225 mg (50 mg time release mornings, 25 mg afternoon, 150 mg time release evenings), lithium 600 mg (300 mg mornings and evenings), and 2 intranasal puffs of ketamine.

[4] = cited from earlier work; remark: listed apart in the source
[5] = Subject's earlier response to sedative/analgesic drugs (medical history); settings: child, around adenoid removal

## CN[C@@]1(c2ccccc2Cl)CCCCC1=O [(R)-ketamine]
[1]; in vivo
  hallucinogenic effect: hallucinogenic

## CN[C@]1(c2ccccc2Cl)CCCCC1=O [(S)-ketamine]
[2]
  affinity for the PCP site of the NMDA receptor relative to (R)-ketamine: about four
[1]; comparison of enantiomers
  induction of drowsiness: more strongly than the (R) enantiomer

## CNC1(c2ccccc2Cl)CCCCC1=O (stereo not drawn) [ketamine, [(2-2-chlorophenyl)-2-(methylamino)-cyclohexanone]]
[3]
  coordination: improved coordination
  coping with transitions: able to cope with transitions without the aid of transitional rituals
  dependence on transitional objects: decreased to the rare occasion
  hallucinations: complete remission
  hoarding behavior: ceased
  motion sickness: no more motion sickness
  night sweats: no longer complains of night sweats
  physical well-being: much improvement
  sleep: improved greatly
  speech: improved with much greater regularity in coherence, tempo, volume, and clarity
  thirst on awakening: no longer awakens extremely thirsty
[3]; except the last few days of the ketamine cycle
  delusions: subsided
[3]; returns on occasion the few days prior to next administration
  aggression: nearly disappeared
[3]; subject's report
  dreams: “good dreams” have replaced their “bad dreams.”
[3]; child, with seroquel 225 mg and lithium 600 mg
  overall response after the use of ketamine: quite notable changes in body temperature, speech, levels of fear, sleep, attention, aggression, and psychosis/delusions
[4]; dose of ketamine
  dose at which mild adverse effects (dysphoria and/or hallucinations, "ketamine dreams") can occur: greater than 50 mg
[4]; total dose intranasally
  dose usually required for mild adverse effects (dysphoria and/or hallucinations): greater than 100 mg

## Cc1ncc2n1-c1ccc(Cl)cc1C(c1ccccc1F)=NC2 [Versid]
[5]
  response of subject to drug (medical history): extreme hyperactivity instead of relaxation
